Measured values from PubChem BioAssay (NCI).
Values joined by “and” are separate entries in the source; they are usually repeats but may differ in a detail not shown here. Equal values may be shown once.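 GI50: concentration for 50% inhibition of growth. At the TGI there is no net growth.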

How the values were obtained:
Experiment in all cases: inhibition of tumour cell growth, NCI panel, 384-well format
HCC-2998 colon = test system: HCC-2998 colon
HCT-15 colon = test system: HCT-15 colon
SN12C renal = test system: SN12C renal
SK-MEL-28 melanoma = test system: SK-MEL-28 melanoma
OVCAR-4 ovarian = test system: OVCAR-4 ovarian
NCI-H226 lung = test system: NCI-H226 lung
UACC-62 melanoma = test system: UACC-62 melanoma
A549 NSCLC = test system: A549 NSCLC
HS 578T breast = test system: HS 578T breast
RPMI-8226 leukemia = test system: RPMI-8226 leukemia
NCI/ADR-RES ovarian = test system: NCI/ADR-RES ovarian
SNB-75 CNS = test system: SNB-75 CNS
OVCAR-3 ovarian = test system: OVCAR-3 ovarian
MDA-MB-435 melanoma = test system: MDA-MB-435 melanoma
HL-60(TB) leukemia = test system: HL-60(TB) leukemia
BT-549 breast = test system: BT-549 breast
HOP-62 NSCLC = test system: HOP-62 NSCLC
TK-10 renal = test system: TK-10 renal
DU-145 prostate = test system: DU-145 prostate
786-0 renal = test system: 786-0 renal
A498 renal = test system: A498 renal
MOLT-4 leukemia = test system: MOLT-4 leukemia
SK-MEL-2 melanoma = test system: SK-MEL-2 melanoma
NCI-H460 NSCLC = test system: NCI-H460 NSCLC
OVCAR-5 ovarian = test system: OVCAR-5 ovarian
HT29 colon = test system: HT29 colon
OVCAR-8 ovarian = test system: OVCAR-8 ovarian
PC-3 prostate = test system: PC-3 prostate
HOP-92 NSCLC = test system: HOP-92 NSCLC
MALME-3M melanoma = test system: MALME-3M melanoma
CAKI-1 renal = test system: CAKI-1 renal
KM12 colon = test system: KM12 colon
UO-31 renal = test system: UO-31 renal
MDA-MB-468 breast = test system: MDA-MB-468 breast
ACHN renal = test system: ACHN renal
MDA-MB-231 breast = test system: MDA-MB-231 breast
NCI-H23 lung = test system: NCI-H23 lung
SR leukemia = test system: SR leukemia
SF-539 CNS = test system: SF-539 CNS
T-47D breast = test system: T-47D breast
MCF7 breast = test system: MCF7 breast
EKVX NSCLC = test system: EKVX NSCLC
RXF 393 renal = test system: RXF 393 renal
K-562 leukemia = test system: K-562 leukemia
SF-268 CNS = test system: SF-268 CNS
SK-OV-3 ovarian = test system: SK-OV-3 ovarian
SW-620 colon = test system: SW-620 colon
SNB-19 CNS = test system: SNB-19 CNS
NCI-H322M lung = test system: NCI-H322M lung
HCT-116 colon = test system: HCT-116 colon
U251 glioblastoma = test system: U251 glioblastoma
CCRF-CEM leukemia = test system: CCRF-CEM leukemia
LOX IMVI melanoma = test system: LOX IMVI melanoma
NCI-H522 lung = test system: NCI-H522 lung
IGROV1 ovarian = test system: IGROV1 ovarian
COLO 205 colon = test system: COLO 205 colon
SF-295 CNS = test system: SF-295 CNS
SK-MEL-5 melanoma = test system: SK-MEL-5 melanoma
M14 melanoma = test system: M14 melanoma

In the case of `Nc1nc2[nH]cc(CCc3ccc(C(=O)N[C@@H](CCC(=O)O)C(=O)O)cc3)c2c(=O)[nH]1`, the GI50 (HCC-2998 colon) is reported as 40.5 nM and 24 nM, the TGI (HCC-2998 colon) is reported as 50000 nM and > 100000 nM and the GI50 (HCT-15 colon) is reported as 1160 nM and 506 nM. The TGI (HCT-15 colon) was 50000 nM and > 100000 nM, the GI50 (SN12C renal) was 45.8 nM and 36.6 nM and the GI50 (SK-MEL-28 melanoma) was 167 nM. The TGI (SK-MEL-28 melanoma) was 5610 nM, the GI50 (OVCAR-4 ovarian) was > 50000 nM and 6980 nM and the TGI (OVCAR-4 ovarian) was > 100000 nM. For the same compound, the GI50 (NCI-H226 lung) was 54 nM and 28.2 nM, the GI50 (UACC-62 melanoma) was 350 nM and 445 nM and the TGI (UACC-62 melanoma) was 50000 nM and > 100000 nM. The GI50 (A549 NSCLC) was 355 nM and 294 nM, the TGI (A549 NSCLC) was 50000 nM and > 100000 nM and the GI50 (HS 578T breast) was 254 nM and 276 nM. The TGI (HS 578T breast) was 50000 nM and > 100000 nM, the GI50 (RPMI-8226 leukemia) was 17.2 nM and 26 nM and the TGI (RPMI-8226 leukemia) was 40.2 nM and 52.8 nM. The GI50 (NCI/ADR-RES ovarian) was 267 nM and 151 nM, the TGI (NCI/ADR-RES ovarian) was 50000 nM and > 100000 nM and the GI50 (SNB-75 CNS) was 78.2 nM and 121 nM. For the same compound, the GI50 (OVCAR-3 ovarian) was 336 nM and 286 nM, the TGI (OVCAR-3 ovarian) was 50000 nM and > 100000 nM and the TGI (MDA-MB-435 melanoma) was 50000 nM and > 100000 nM. For the same compound, the GI50 (HL-60(TB) leukemia) was 14.8 nM and 22.6 nM, the TGI (HL-60(TB) leukemia) was 30.5 nM and 57.5 nM and the GI50 (BT-549 breast) was 194 nM and 37.6 nM. For the same compound, the GI50 (HOP-62 NSCLC) was 307 nM and 181 nM, the TGI (HOP-62 NSCLC) was 50000 nM and > 100000 nM and the GI50 (TK-10 renal) was 245 nM and 760 nM. For the same compound, the TGI (TK-10 renal) was 50000 nM and > 100000 nM, the GI50 (DU-145 prostate) was 202 nM and 146 nM and the TGI (DU-145 prostate) was 50000 nM and > 100000 nM. For the same compound, the GI50 ([…]-0 renal) was 33.5 nM and 30.5 nM, the TGI (786-0 renal) was 50000 nM and 8170 nM and the TGI (A498 renal) was 50000 nM and > 100000 nM. For the same compound, the GI50 (MOLT-4 leukemia) was 12.1 nM and 19.2 nM, the TGI (MOLT-4 leukemia) was 23.6 nM and 33.8 nM and the GI50 (SK-MEL-2 melanoma) was > 50000 nM. The TGI (SK-MEL-2 melanoma) was > 50000 nM, the GI50 (NCI-H460 NSCLC) was 120 nM and 79.2 nM and the TGI (NCI-H460 NSCLC) was 50000 nM and > 100000 nM. For the same compound, the GI50 (OVCAR-5 ovarian) was 1310 nM and 4200 nM, the TGI (OVCAR-5 ovarian) was 50000 nM and > 100000 nM and the GI50 (HT29 colon) was 257 nM and 89 nM. The TGI (HT29 colon) was 50000 nM and > 100000 nM, the GI50 (OVCAR-8 ovarian) was 44.7 nM and 50.1 nM and the TGI (OVCAR-8 ovarian) was 50000 nM and > 100000 nM. For the same compound, the GI50 (PC-3 prostate) was 64.3 nM, the TGI (PC-3 prostate) was > 100000 nM and the GI50 (HOP-92 NSCLC) was > 100000 nM. The TGI (HOP-92 NSCLC) was > 100000 nM, the GI50 (MALME-3M melanoma) was 3120 nM and 728 nM and the TGI (MALME-3M melanoma) was 50000 nM and > 100000 nM. For the same compound, the GI50 (CAKI-1 renal) was 193 nM and 179 nM, the TGI (CAKI-1 renal) was 50000 nM and > 100000 nM and the GI50 (KM12 colon) was > 100000 nM. For the same compound, the TGI (KM12 colon) was > 100000 nM, the GI50 (UO-31 renal) was 195 nM and 33.4 nM and the GI50 (MDA-MB-468 breast) was 131 nM and 322 nM. The GI50 (ACHN renal) was 180 nM and 80.4 nM, the TGI (ACHN renal) was 50000 nM and > 100000 nM and the GI50 (MDA-MB-231 breast) was 234 nM and 374 nM. The TGI (MDA-MB-231 breast) was 1120 nM and 1630 nM, the GI50 (NCI-H23 lung) was > 50000 nM and 9320 nM and the TGI (NCI-H23 lung) was > 100000 nM. For the same compound, the GI50 (SR leukemia) was 33.1 nM and 38.8 nM, the GI50 (SF-539 CNS) was 72.1 nM and 41.9 nM and the GI50 (T-47D breast) was > 100000 nM. The TGI (T-47D breast) was > 100000 nM, the GI50 (MCF7 breast) was 47.1 nM and 33.9 nM and the TGI (MCF7 breast) was 50000 nM and > 100000 nM. For the same compound, the TGI (EKVX NSCLC) was > 100000 nM, the GI50 (RXF 393 renal) was 24.8 nM and the TGI (RXF 393 renal) was 58.3 nM. For the same compound, the GI50 (K-562 leukemia) was 11.8 nM, the TGI (K-562 leukemia) was 24.8 nM and the GI50 (SF-268 CNS) was 45.8 nM and 33.4 nM. For the same compound, the TGI (SF-268 CNS) was 264 nM and 96.2 nM, the TGI (SK-OV-3 ovarian) was > 100000 nM and the GI50 (SW-620 colon) was 47.2 nM and 70.8 nM. For the same compound, the TGI (SW-620 colon) was 50000 nM and > 100000 nM, the GI50 (SNB-19 CNS) was 1030 nM and 3660 nM and the TGI (SNB-19 CNS) was 50000 nM and > 100000 nM. The GI50 (NCI-H322M lung) was > 100000 nM, the TGI (NCI-H322M lung) was > 100000 nM and the GI50 (HCT-116 colon) was 38.7 nM and 61.8 nM. For the same compound, the TGI (HCT-116 colon) was 50000 nM and > 100000 nM, the GI50 (U251 glioblastoma) was 243 nM and 249 nM and the GI50 (CCRF-CEM leukemia) was 21.3 nM. For the same compound, the TGI (CCRF-CEM leukemia) was 73.3 nM, the GI50 (LOX IMVI melanoma) was 88.3 nM and the TGI (LOX IMVI melanoma) was > 100000 nM. The GI50 (NCI-H522 lung) was 300 nM and 327 nM, the GI50 (IGROV1 ovarian) was > 50000 nM and 29800 nM and the TGI (IGROV1 ovarian) was > 100000 nM. The GI50 (COLO 205 colon) was 37.9 nM and 30.6 nM, the GI50 (SF-295 CNS) was 31.6 nM and 75.6 nM and the TGI (SK-MEL-5 melanoma) was > 100000 nM. The GI50 (M14 melanoma) was 105 nM and 56.1 nM.
